Values of other authors in US20210123869A1, “METHOD FOR MEASURING PH OF TEST WATER” (MIURA CO., LTD., priority 2018, published 2021).

Settings: value at 25° C.; two values for reagents acid-dissociated in two stages

Row | acid dissociation constant (pKa) | Compound
1 | 4.7 | Cc1c(C2(c3cc(Br)c(O)c(Br)c3C)OS(=O)(=O)c3ccccc32)cc(Br)c(O)c1Br [bromocresol green]
2 | 6.3 | Cc1cc(C2(c3cc(C)c(O)c(Br)c3)OS(=O)(=O)c3ccccc32)cc(Br)c1O [bromocresol purple]
3 | 11.06 | alizarin yellow
